# In patent US20250090540A1, “PI3K-ALPHA INHIBITORS AND METHODS OF USE THEREOF” (Relay Therapeutics, Inc., priority 2021, published 2025):
# Target: H1047R PIK3CA enzyme (Homo sapiens, UniProt P42336, H1047R)
# Test: ADP-Glo Biochemical PIK3CA Kinase Assay
# Details: not given
# Protocol: Compounds to be assayed were plated in 16 doses of 1:2 serial dilutions (20 nL volume each well) on a 1536-well plate, and the plate warmed to room temperature. PIK3CA enzyme (e.g. H1047R, E542K, E545K, or wild-type) (1 μL of 2 nM solution in Enzyme Assay Buffer (comprising 50 mM HEPES pH 7.4, 50 mM NaCl, 6 mM MgCl2, 5 mM DTT and 0.03% CHAPS)) was added and shaken for 10 seconds and preincubated for 30 minutes. To the well was added 1 μL of 200 μM ATP and 20 μM of diC8-PIP2 in Substrate Assay Buffer (50 mM HEPES pH7.4, 50 mM NaCl, 5 mM DTT and 0.03% CHAPS) to start the reaction, and the plate was shaken for 10 seconds, then spun briefly at 1500 rpm, and then incubated for 60 minutes at room temperature. The reaction was stopped by adding 2 μL of ADP-Glo reagent (Promega), and spinning briefly at 1500 rpm, and then incubating for 40 minutes. ADP-Glo Detection reagent (Promega) was added and the plate spun briefly at 1500 rpm, then incubated for 30 minutes.
# Sequence of H1047R PIK3CA enzyme (P42336 whole entry H1047R): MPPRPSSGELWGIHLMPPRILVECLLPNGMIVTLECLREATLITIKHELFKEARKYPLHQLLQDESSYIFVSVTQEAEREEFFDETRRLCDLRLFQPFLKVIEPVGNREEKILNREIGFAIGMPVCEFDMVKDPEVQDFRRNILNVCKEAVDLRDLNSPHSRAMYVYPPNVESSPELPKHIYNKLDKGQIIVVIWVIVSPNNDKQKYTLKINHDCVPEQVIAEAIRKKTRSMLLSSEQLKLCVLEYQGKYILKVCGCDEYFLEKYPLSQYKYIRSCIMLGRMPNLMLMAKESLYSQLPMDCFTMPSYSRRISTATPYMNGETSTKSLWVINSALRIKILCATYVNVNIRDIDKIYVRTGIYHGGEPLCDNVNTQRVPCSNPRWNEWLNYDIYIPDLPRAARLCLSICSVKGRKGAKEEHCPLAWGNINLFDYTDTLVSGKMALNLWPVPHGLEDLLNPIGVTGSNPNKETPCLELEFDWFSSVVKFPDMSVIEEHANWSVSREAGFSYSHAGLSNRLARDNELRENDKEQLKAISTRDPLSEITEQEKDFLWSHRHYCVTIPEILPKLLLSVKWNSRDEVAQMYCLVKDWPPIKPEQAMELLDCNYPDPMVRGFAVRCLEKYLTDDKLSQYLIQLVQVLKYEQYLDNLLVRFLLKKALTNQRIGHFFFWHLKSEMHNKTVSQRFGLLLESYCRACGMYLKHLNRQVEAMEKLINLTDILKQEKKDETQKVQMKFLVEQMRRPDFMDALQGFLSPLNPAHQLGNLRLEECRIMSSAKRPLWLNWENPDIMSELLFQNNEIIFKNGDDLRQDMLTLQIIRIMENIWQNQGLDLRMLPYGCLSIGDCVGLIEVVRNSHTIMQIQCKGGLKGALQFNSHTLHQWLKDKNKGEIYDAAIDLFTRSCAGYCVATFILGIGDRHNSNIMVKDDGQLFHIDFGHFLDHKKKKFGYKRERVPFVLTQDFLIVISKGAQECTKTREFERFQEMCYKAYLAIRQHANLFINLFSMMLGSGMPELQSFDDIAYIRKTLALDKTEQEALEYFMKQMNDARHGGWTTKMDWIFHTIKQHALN
# Sequence of H1047R PIK3CA enzyme (P27986 whole entry partner): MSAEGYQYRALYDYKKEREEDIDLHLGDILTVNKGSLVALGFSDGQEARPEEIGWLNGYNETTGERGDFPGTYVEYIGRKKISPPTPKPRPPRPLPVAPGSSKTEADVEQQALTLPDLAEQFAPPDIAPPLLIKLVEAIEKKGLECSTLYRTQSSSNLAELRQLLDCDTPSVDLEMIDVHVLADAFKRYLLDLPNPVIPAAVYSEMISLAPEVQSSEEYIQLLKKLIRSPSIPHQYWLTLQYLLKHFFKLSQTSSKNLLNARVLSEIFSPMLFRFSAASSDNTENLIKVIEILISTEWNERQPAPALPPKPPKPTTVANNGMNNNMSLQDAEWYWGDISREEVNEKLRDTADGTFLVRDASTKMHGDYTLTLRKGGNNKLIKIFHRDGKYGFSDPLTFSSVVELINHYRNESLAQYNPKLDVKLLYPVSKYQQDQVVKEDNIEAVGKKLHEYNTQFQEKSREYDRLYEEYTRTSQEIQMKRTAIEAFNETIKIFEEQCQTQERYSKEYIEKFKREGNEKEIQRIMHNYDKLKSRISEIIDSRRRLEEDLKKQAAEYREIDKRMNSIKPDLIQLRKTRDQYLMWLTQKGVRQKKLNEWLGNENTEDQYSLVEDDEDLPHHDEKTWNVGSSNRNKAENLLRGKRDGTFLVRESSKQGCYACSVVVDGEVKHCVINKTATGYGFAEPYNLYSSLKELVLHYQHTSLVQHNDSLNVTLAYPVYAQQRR
row,IC50 [µM],Structure (SMILES)
1,10 to 100,Cc1ccccc1N[C@H]1CCN(C(=O)OC(C)(C)C)C[C@H]1C(=O)Nc1cc(F)cc(C(F)(F)F)c1 (racemic) [I-68]
2,10 to 100,Cc1ccccc1N[C@H]1CCN(C(=O)OC(C)(C)C)C[C@@H]1C(=O)Nc1cc(F)cc(C(F)(F)F)c1 (racemic) [I-156]
3,10 to 100,CNC(=O)N1CC[C@H](Nc2ccccc2C)[C@H](C(=O)Nc2cc(F)cc(C(F)(F)F)c2)C1 (racemic) [I-203]
4,10 to 100,Cc1ccccc1N[C@H]1CCN(C(=O)C2(O)CC2)C[C@H]1C(=O)Nc1cc(F)cc(C(F)(F)F)c1 (racemic) [I-227]
5,10 to 100,Cc1ccccc1N[C@H]1CCN(C(=O)C2(O)CC2)C[C@@H]1C(=O)Nc1cc(F)cc(C(F)(F)F)c1 (racemic) [I-228]
6,10 to 100,CNC(=O)N1CC[C@@H](Nc2ccccc2C)[C@H](C(=O)Nc2cc(F)cc(C(F)(F)F)c2)C1 (racemic) [I-229]
7,10 to 100,Cc1ccccc1N[C@H]1CCN(C(=O)CC2CCOCC2)C[C@H]1C(=O)Nc1cc(F)cc(C(F)(F)F)c1 (racemic) [I-251]
8,10 to 100,Cc1ccccc1N[C@H]1CCN(C2CCC2)C[C@H]1C(=O)Nc1cc(F)cc(C(F)(F)F)c1 (racemic) [I-252]
9,1 to 10,CNC(=O)c1cnc(N2C[C@H]3C[C@H]3c3ccccc32)c(NC(=O)c2csc3ccccc23)c1 (racemic) [I-253]
10,10 to 100,Cc1ccccc1N[C@H]1CCN(C(=O)CC2CCOCC2)C[C@@H]1C(=O)Nc1cc(F)cc(C(F)(F)F)c1 (racemic) [I-254]
11,0.5 to 1,O=C(NC1CS(=O)(=O)C1)c1cnc(N2C[C@H]3C[C@H]3c3ccccc32)c(NC(=O)c2csc3ccccc23)c1 (racemic) [I-255]
12,1 to 10,C[C@@H](NC(=O)c1cnc(N2CCCOc3ccccc32)c(NC(=O)c2csc3ccccc23)c1)c1cccnc1 (racemic) [I-278]
13,1 to 10,CC1CN(c2ncc(C(=O)N[C@H](C)c3cccnc3)cc2NC(=O)c2csc3ccccc23)c2ccccc2O1 (mixture of isomers) [I-336]
14,0.5 to 1,CN1CC[C@H](NC(=O)c2cnc(N3CCOc4ccccc43)c(NC(=O)c3csc4ccccc34)c2)C1 (racemic) [I-349]
15,10 to 100,"Cc1ccccc1[C@@H]1Nc2ccccc2[C@H]1CNC(=O)c1cc(F)cc(C(F)(F)F)c1 (racemic) [I-808, 3-fluoro-N-(((2R,3S)-2-(o-tolyl)indolin-3-yl)methyl)-5-(trifluoromethyl)benzamide]"
16,10 to 100,CNC(=O)c1cnc(N[C@@H]2CCCC[C@@H]2CO)c(NC(=O)c2cc(F)cc(C(F)(F)F)c2)c1 (racemic) [I-812]
17,10 to 100,O=C(Nc1cc(-c2ccc3ncnn3c2)cnc1N[C@H]1CCCC[C@H]1CO)c1cc(F)cc(C(F)(F)F)c1 (racemic) [I-817]
18,10 to 100,O=C1C[C@H](CCO)[C@@H](CNC(=O)c2cc(F)cc(C(F)(F)F)c2)[C@H](c2cc(F)ccc2Cl)N1 (racemic) [I-821]
19,10 to 100,"O=C(N[C@@H]1CCC[C@H](O)[C@H]1c1cc(F)ccc1Cl)c1cc(F)cc(C(F)(F)F)c1 (racemic) [I-823, N-[(1R,2S,3S)-2-(2-chloro-5-fluorophenyl)-3-hydroxycyclohexyl]-3-fluoro-5-(trifluoromethyl)benzamide]"
20,10 to 100,"CNC(=O)CN1CC(=O)N[C@H](c2cc(F)ccc2Cl)[C@H]1C(=O)NC1CCCC(C(F)(F)F)C1 (mixture of isomers) [I-825, trans-3-(2-chloro-5-fluorophenyl)-1-[(methylcarbamoyl)methyl]-5-oxo-N-[3-(trifluoromethyl)cyclohexyl]piperazine-2-carboxamide]"
21,1 to 10,Cc1ccccc1Nc1ncc(C(=O)N[C@@H]2CCN(C)C2)cc1NC(=O)c1cc(F)cc(C(F)(F)F)c1 (stereo in doubt) [I-64]

row,IC50 [µM],Structure (SMILES)
1,10 to 100,CNC(=O)c1cnc(Nc2ccccc2C)c(NC(=O)[C@H](N)C2CCCCC2)c1 (stereo in doubt) [I-142]
2,10 to 100,CNC(=O)c1cnc(Nc2ccccc2C)c(NC(=O)[C@@H](N)C2CCCCC2)c1 (stereo in doubt) [I-159]
3,0.5 to 1,CNC(=O)c1cnc(Nc2ccccc2C)c(NC(=O)c2cc(F)cc(Br)c2)c1 [I-2]
4,1 to 10,COC(=O)c1cnc(Nc2ccccc2C)c(NC(=O)c2cc(F)cc(C(F)(F)F)c2)c1 [I-3]
5,10 to 100,CNC(=O)c1cnc(Nc2ccccc2C)c(NC(=O)c2cc3c(F)cc(F)cc3[nH]2)c1 [I-5]
6,10 to 100,Cc1ccccc1Nc1ncc(-c2cnn(C)c2)cc1NC(=O)c1cc(F)cc(C(F)(F)F)c1 [I-9]
7,10 to 100,CNC(=O)c1cnc(Nc2ccccc2C)c(N(S(=O)(=O)c2ccc(F)cc2C)S(=O)(=O)c2ccc(F)cc2C)c1 [I-10]
8,10 to 100,CNC(=O)c1cnc(Nc2ccccc2C)c(NC(=O)c2cc(Cl)ccc2OC)c1 [I-12]
9,10 to 100,CNC(=O)c1cnc(Nc2ccccc2C)c(N(S(=O)(=O)c2ccccc2)S(=O)(=O)c2ccccc2)c1 [I-13]
10,10 to 100,CNC(=O)c1cnc(Nc2ccccc2C)c(NC(=O)Cc2ccc(OCc3ccccc3)c(OCc3ccccc3)c2)c1 [I-14]
11,10 to 100,Cc1ccccc1Nc1ncc(C(=O)N2CCCC2)cc1NC(=O)c1cc(F)cc(C(F)(F)F)c1 [I-15]
12,1 to 10,Cc1ccccc1Nc1ncc(C(=O)O)cc1NC(=O)c1cc(F)cc(C(F)(F)F)c1 [I-17]
13,1 to 10,CNC(=O)c1cnc(Nc2ccccc2C)c(NC(=O)c2oc(C)nc2C)c1 [I-18]
14,10 to 100,Cc1cnc(Nc2ccccc2C)c(NC(=O)c2cc(F)cc(C(F)(F)F)c2)c1 [I-19]
15,1 to 10,CNC(=O)c1cnc(Nc2ccccc2C)c(NS(=O)(=O)c2ccccc2)c1 [I-20]
16,10 to 100,Cc1ccccc1Nc1ncc(C(=O)N2CCOCC2)cc1NC(=O)c1cc(F)cc(C(F)(F)F)c1 [I-22]
17,10 to 100,CNC(=O)c1cnc(Nc2ccccc2C)c(NCc2ccccc2)c1 [I-23]
18,10 to 100,CNC(=O)c1cnc(Nc2ccccc2)c([N+](=O)[O-])c1 [I-24]
19,10 to 100,CNC(=O)c1cnc(Nc2cccc(F)c2)c([N+](=O)[O-])c1 [I-25]
20,10 to 100,CNC(=O)c1cnc(Nc2ccccc2C)c(NC(=O)Cc2c(C)nc(N)[nH]c2=O)c1 [I-26]
21,10 to 100,CNC(=O)c1cnc(Nc2cccc(F)c2)c(NC(=O)c2cc(F)cc(C(F)(F)F)c2)c1 [I-29]

row,IC50 [µM],Structure (SMILES)
1,10 to 100,CNC(=O)c1cnc(Nc2ccccc2)c(N)c1 [I-31]
2,10 to 100,CNC(=O)c1cnc(Nc2cccc(F)c2)c(N)c1 [I-32]
3,10 to 100,CNC(=O)c1cnc(Nc2ccccc2)c(NC(=O)c2cc(F)cc(C(F)(F)F)c2)c1 [I-33]
4,10 to 100,CNC(=O)c1cnc(Nc2ccccc2C)c(NCC2CC2)c1 [I-34]
5,10 to 100,CNC(=O)c1cnc(Nc2ccccc2C)c(NC(=O)Cc2cccc(Cl)c2)c1 [I-35]
6,10 to 100,CNC(=O)c1cnc(N2CCc3ccccc32)c(NC(=O)c2cc(F)cc(C(F)(F)F)c2)c1 [I-37]
7,10 to 100,CNC(=O)c1cnc(Nc2ccccc2C#N)c(NC(=O)c2cc(F)cc(C(F)(F)F)c2)c1 [I-38]
8,1 to 10,CNC(=O)c1cnc(Nc2cccc(C)c2)c(NC(=O)c2cc(F)cc(C(F)(F)F)c2)c1 [I-39]
9,10 to 100,CNC(=O)c1cnc(Nc2ccccc2C)c(NC(=O)c2cc3ccccc3o2)c1 [I-40]
10,10 to 100,CNC(=O)c1cnc(Nc2ccccc2C)c(NC(=O)c2ccccc2)c1 [I-43]
11,1 to 10,CNC(=O)c1cnc(Nc2ccccc2C)c(NC(=O)c2coc3ccccc23)c1 [I-44]
12,10 to 100,CNC(=O)c1cnc(Nc2ccccc2S(C)(=O)=O)c(NC(=O)c2cc(F)cc(C(F)(F)F)c2)c1 [I-47]
13,10 to 100,CNC(=O)c1cnc(Nc2ccccc2C)c(NC(=O)c2ncn3ccccc23)c1 [I-48]
14,1 to 10,Cc1ccccc1Nc1ncc(C#N)cc1NC(=O)c1cc(F)cc(C(F)(F)F)c1 [I-49]
15,10 to 100,CNC(=O)c1cnc(Nc2ccccc2C)c(NS(=O)(=O)c2cn(C)nc2C)c1 [I-55]
16,10 to 100,CNc1ncc(Br)cc1NC(=O)c1cc(F)cc(C(F)(F)F)c1 [I-58]
17,1 to 10,Cc1ccc(NC(=O)c2cc(F)cc(C(F)(F)F)c2)c(Nc2ccccc2C)n1 [I-59]
18,10 to 100,Cc1ccccc1Nc1ncc(-c2cnn(C)c2)cc1Nc1ncnn2cccc12 [I-61]
19,1 to 10,Cc1ccccc1Nc1ncc(NS(C)(=O)=O)cc1NC(=O)c1cc(F)cc(C(F)(F)F)c1 [I-62]

row,Structure (SMILES),IC50 [µM]
1,Cc1ccccc1Nc1ncc(C2=CCNCC2)cc1NC(=O)c1cc(F)cc(C(F)(F)F)c1 [I-16],10 to 100

# Same assay, conditions: ADP-Glo biochemical PIK3CA kinase assay
row,IC50 [µM],Structure (SMILES)
1,1 to 10,CNC(=O)c1cnc(N[C@@H]2CCOC2)c(NC(=O)c2cc(F)cc(C(F)(F)F)c2)c1 (racemic) [I-554]
2,0.5 to 1,CCOC(=O)[C@H]1CC[C@@H](NC(=O)c2cnc(Nc3ccccc3C)c(NC(=O)c3csc4ccccc34)c2)C1 (racemic) [I-653]
3,1 to 10,CCOC(=O)[C@@H]1CC[C@@H](NC(=O)c2cnc(Nc3ccccc3C)c(NC(=O)c3csc4ccccc34)c2)C1 (racemic) [I-654]
4,1 to 10,Cc1ccccc1[C@H]1NC(=O)C[C@@H]1C(=O)Nc1cc(F)cc(C(F)(F)F)c1 (racemic) [I-669]
5,0.5 to 1,O=C(N[C@H]1CCC[C@H]1N1CCOc2ccccc21)c1cc(F)cc(C(F)(F)F)c1 (racemic) [I-796]
6,1 to 10,"CNC(=O)c1cnc(N2CCC[C@@H]3CCC[C@@H]32)c(NC(=O)c2csc3ccccc23)c1 (single isomer, unassigned) [I-633]"
7,1 to 10,"Cc1ccccc1Nc1ncc(C(=O)N[C@@H]2CC[C@@H](C(=O)O)C2)cc1NC(=O)c1csc2ccccc12 (single isomer, unassigned) [I-661]"
